Experimental data as given in PMC9481570, “A small molecule antagonist of SMN disrupts the interaction between SMN and RNAP II” (Nature Communications, 2022).

Key:
[1] = system: UHRF1_TTD R296-binding pocket mutants; assay: ITC binding to UHRF1 TTD R296-binding pocket mutants; settings: Supplementary Fig. 9e
Description: (§1) The coding DNA fragments of following Tudor domains were cloned into pET28-MHL vector: SMN (aa 82–147), UHRF1 (aa 126–285), SMNDC1 (aa 53–130), TDRD3 (aa 554–611), SND1 (aa 650–910), TDRD2 (aa 327–420), FXR1 (aa 2–132), PHF1 (aa 28–87), SGF29 (aa 115–293), JMJD2A (aa 897–1101), 53BP1 (aa 1483–1606), SETDB1 (aa 190–410), LBR (aa 1–67), ZGPAT (aa 120–271). The coding regions of chromodomain of CBX7 (aa 8–62), PWWP domain of DNMT3A (aa 275–417), WD40 repeats of WDR5 (aa 24–334) and CW domain of ZCWPW2 (aa 21–78) were also subcloned into pET28-MHL vector to generate N-terminally His-tagged fusion protein. The MBT repeats of L3MBTL1 (aa 200–522) and L3MBTL2 (aa 170–625) were subcloned into pET28GST-LIC vector to generate N-terminally GST-His-tagged fusion protein. All the plasmids were generated by ligase independent cloning (Vazyme Biotech, C112 or ABclonal Technology, RK21020). […] The molecular weight of all protein samples was measured by mass spectrometry.
(§2) For the ITC measurement, the concentrated proteins were diluted into 20 mM Tris-HCl, pH 7.5, 150 mM NaCl (ITC buffer); the lyophilized compounds were dissolved in the same buffer, and the pH value was adjusted by adding 2 M NaOH or 2 M HCl. […] Compound concentrations were calculated from the mass and the volume of the solvent. […]

[2] = biological target: T1, LBR (Homo sapiens, UniProt Q14739); assay: ITC binding to LBR; settings: Fig. 1c
T1 construct: LBR (aa 1–67); His (N, cleaved yes); made in house; host or cells: E. coli BL21 (DE3) Codon plus RIL
T1 sequence (Q14739 1-67): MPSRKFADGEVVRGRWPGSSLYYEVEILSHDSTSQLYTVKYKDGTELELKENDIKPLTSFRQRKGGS
Description: as §1, §2

[3] = biological target: T2, SMN_W102A (Homo sapiens, UniProt Q16637, W102A); assay: ITC binding to SMN Tudor mutant W102A; settings: Fig. 3d
T2 construct: SMN (aa 82–147); His (N, cleaved yes); made in house; host or cells: E. coli BL21 (DE3) Codon plus RIL
T2 sequence (Q16637 82-147 W102A): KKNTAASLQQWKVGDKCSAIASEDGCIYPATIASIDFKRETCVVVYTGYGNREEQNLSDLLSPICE
Description: as §1, §2

[4] = biological target: T3, SMN_Y130A (Homo sapiens, UniProt Q16637, Y130A); assay: ITC binding to SMN Tudor mutant Y130A; settings: Fig. 3d
T3 construct: cloned into pET28-MHL vector: SMN (aa 82–147); His (N, cleaved yes); made in house; host or cells: E. coli BL21 (DE3) Codon plus RIL
T3 sequence (Q16637 82-147 Y130A): as the sequence (Q16637 82-147 W102A) above, with A21W, Y49A counted along it
Description: as §1, §2

[5] = biological target: T4, SETDB1 (Homo sapiens, UniProt Q15047); assay: ITC binding to SETDB1; settings: Fig. 1c
T4 construct: SETDB1 (aa 190–410); His (N, cleaved yes); made in house; host or cells: E. coli BL21 (DE3) Codon plus RIL
Description: as §1, §2

[6] = biological target: T5, CBX7 (CD) (Homo sapiens, UniProt O95931); assay: ITC binding to chromodomain of CBX7; settings: Fig. 1c
T5 construct: CBX7 (aa 8–62); His (N, cleaved yes); made in house; host or cells: E. coli BL21 (DE3) Codon plus RIL
T5 sequence (O95931 8-62): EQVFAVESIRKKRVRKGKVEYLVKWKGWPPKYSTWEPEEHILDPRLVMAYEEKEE
Description: as §1, §2

[7] = biological target: T6, SMN_N132A (Homo sapiens, UniProt Q16637, N132A); assay: ITC binding to SMN Tudor mutant N132A; settings: Fig. 3d
T6 construct: cloned into pET28-MHL vector: SMN (aa 82–147); His (N, cleaved yes); made in house; host or cells: E. coli BL21 (DE3) Codon plus RIL
T6 sequence (Q16637 82-147 N132A): as the sequence (Q16637 82-147 W102A) above, with A21W, N51A counted along it
Description: as §1, §2

[8] = Solubility of the hit compound; format: physicochemical
Procedure: Screen Format 384-well black plates (Greiner, 784290)
Concentration(s) tested 2 mM compound with 2% DMSO (final concentration), 40 nM FITC-labeled H3K9me3 peptide, 8 μM tandem
Tudor domain of UHRF1 protein
Plate controls Background: FITC-labeled peptide only; negative control: FITC-labeled peptide and protein; positive control: FITC-labeled peptide and protein plus unlabeled H3K9me3 peptide
Reagent/ compound dispensing system Agilent Bravo robot
Detection instrument and software Synergy 4 microplate reader (BioTek), GraphPad […]
Assay validation/QC Z’ factor = 0.8
Correction factors Background value
Normalization All the digital values of fluorescence polarization signal subtract the background signal value.
Additional comments High concentrations (>2.5%) of DMSO might affect peptide binding and signal-to-noise ratios
Post-HTS analysis Hit criteria The signal of negative control was set as 100%. When the signal of sample was less than 50% of negative control, it was taken as hit.
Additional assay(s) The hits were further confirmed by dose response analysis with 1 mM as the highest concentration of the hits and 11 serial dilutions by 2 times, and then by isothermal titration calorimetry assay.
Confirmation of hit purity and structure The compound was repurchased (Specs, ID: AG- […]

[9] = biological target: T7, PHF1 (Homo sapiens, UniProt O43189); assay: ITC binding to PHF1; settings: Fig. 1c
T7 construct: PHF1 (aa 28–87); His (N, cleaved yes); made in house; host or cells: E. coli BL21 (DE3) Codon plus RIL
T7 sequence (O43189 28-87): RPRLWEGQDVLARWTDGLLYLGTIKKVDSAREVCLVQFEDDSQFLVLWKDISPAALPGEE
Description: as §1, §2

Cn1c2c(c(=N)c3c1CCC3)CCC2 [Compound 1, 4-methyl-2,3,4,5,6,7-hexahydrodicyclopenta[b,e]pyridin-8(1H)-imine]
binding to UHRF1_TTD R296-binding pocket mutants [1]: totally disrupted | Kd [2]: > 244 µM | Kd [3]: > 244 µM | Kd [4]: > 244 µM | Kd [5]: > 244 µM | Kd [6]: > 244 µM | Kd [7]: 70 ± 6 µM | concentration dissolved in DMSO ([8]; DMSO): 100000 µM | solubility in buffer at high concentration ([8]; buffer): but not in buffer | Kd [9]: > 244 µM
